Patent publication US20130102009A1, “SIRTUIN ACTIVATORS AND ACTIVATION ASSAYS” (priority 2010, published 2013)
Several values for one entry are separate records, joined by “and”; a condition that tells them apart may be missing. Equal values may be shown once. Where a name gives a salt, the structure may show the parent alone. Read-outs that look alike come from different tables or passages of the source.

Assays:
[1] = target: T1, SIRT1(183-664) (Homo sapiens, UniProt Q96EB6); experiment: Fluorescence binding experiment with SIRT1(183-664); conditions: excitation 315 nm, emission 450 nm; read-out: Kx (μM), Fluorescence
T1 construct: the truncated version used for biophysical studies SIRT1(183-664); made in house
T1 sequence (Q96EB6 183-664): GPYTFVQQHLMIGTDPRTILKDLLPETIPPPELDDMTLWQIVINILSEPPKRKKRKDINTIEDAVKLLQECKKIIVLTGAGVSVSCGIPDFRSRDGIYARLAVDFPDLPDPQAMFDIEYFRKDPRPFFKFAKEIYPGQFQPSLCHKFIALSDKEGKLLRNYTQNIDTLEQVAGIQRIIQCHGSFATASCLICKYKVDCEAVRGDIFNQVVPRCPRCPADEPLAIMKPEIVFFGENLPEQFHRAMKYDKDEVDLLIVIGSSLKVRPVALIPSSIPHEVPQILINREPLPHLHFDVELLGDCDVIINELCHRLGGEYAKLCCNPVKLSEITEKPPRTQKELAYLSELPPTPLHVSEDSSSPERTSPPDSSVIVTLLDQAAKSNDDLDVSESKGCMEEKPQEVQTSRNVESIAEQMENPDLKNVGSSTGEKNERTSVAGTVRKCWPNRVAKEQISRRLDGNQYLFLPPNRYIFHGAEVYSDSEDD
Experimental: All peptides were prepared by BioPeptide (San Diego, Calif.) and shown to be at least 95% pure by analytical HPLC analysis. Bovine glutamate dehydrogenase (GDH), α-ketoglutarate, NADH and NAD^+ were from Sigma Chemical Company. Full-length, human SIRT1 and the truncated version used for biophysical studies SIRT1(183-664) were prepared as described previously, and shown to have equivalent kinetic properties (Milne et al. (2007) Nature 450, 712-716). The nicotinamidase PNC1 was prepared as described by Denu and colleagues (Smith et al. (2009) Anal Biochem 394, 101-109).
SIRT1(183-664) was dialyzed against a buffer composed of 137 mM NaCl, 2.7 mM KCl, 1 mM MgCl2, 2 mM TCEP, 5% (v/v) glycerol and 50 mM HEPES-NaOH, pH 7.3. 14 was dissolved in the final dialysis buffer and its pH values were adjusted to match that of the protein solution. The fluorescence emission spectra of 14 in the absence or presence of different concentrations of enzyme was monitored on the SpectraMax M5 with excitation at 315 nm. The fluorescence intensity change at 450 nm was plotted against the concentration of SIRT1(183-664) and fitted using a standard binding equation.

[2] = target: T2, SIRT1 (Homo sapiens, UniProt Q96EB6); experiment: Mass spectroscopic kinetic assay of SIRT1-catalyzed deacetylation of 20mer peptides; type: biochemical
T2 sequence (Q96EB6 1-747): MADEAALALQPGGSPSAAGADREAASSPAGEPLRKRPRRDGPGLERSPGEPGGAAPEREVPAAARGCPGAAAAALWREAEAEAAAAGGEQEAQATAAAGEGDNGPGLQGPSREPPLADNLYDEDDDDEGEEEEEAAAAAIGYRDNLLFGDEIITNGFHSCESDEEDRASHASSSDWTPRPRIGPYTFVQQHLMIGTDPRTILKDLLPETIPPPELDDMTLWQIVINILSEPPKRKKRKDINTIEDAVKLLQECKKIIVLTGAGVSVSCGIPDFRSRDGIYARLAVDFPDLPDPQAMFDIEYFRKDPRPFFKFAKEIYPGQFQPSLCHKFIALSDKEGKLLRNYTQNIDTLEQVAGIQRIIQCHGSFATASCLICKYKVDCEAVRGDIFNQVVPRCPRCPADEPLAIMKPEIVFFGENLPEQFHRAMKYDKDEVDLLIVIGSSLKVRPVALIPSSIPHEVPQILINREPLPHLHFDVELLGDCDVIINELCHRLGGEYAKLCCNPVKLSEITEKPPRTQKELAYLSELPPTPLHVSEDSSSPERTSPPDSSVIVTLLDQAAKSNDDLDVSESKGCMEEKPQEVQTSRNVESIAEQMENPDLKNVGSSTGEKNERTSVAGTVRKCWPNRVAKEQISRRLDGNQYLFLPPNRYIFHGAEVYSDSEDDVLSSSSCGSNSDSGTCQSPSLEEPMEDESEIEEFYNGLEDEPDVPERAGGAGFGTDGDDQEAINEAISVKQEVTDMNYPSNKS
Experimental: Bovine glutamate dehydrogenase (GDH), α-ketoglutarate, NADH and NAD^+ were from Sigma Chemical Company. […] The nicotinamidase PNC1 was prepared as described by Denu and colleagues (Smith et al. (2009) Anal Biochem 394, 101-109). Our collection of approximately 5,000 SIRT1 activators was screened using the BioTrove mass spectrometry system, as previously described (Milne et al. (2007) Nature 450, 712-716). […] Compounds were present at 10 μM, and the assays were conducted in a pH 7.4 buffer containing 150 mM Tris, 5 mM DTT, 1% DMSO, and 0.025% BSA. To determine the interaction of STACs with SIRT1 two kinetic methods were employed. […] (2007) Nature 450, 712-716). The other, used with peptides of general structure […], used a continuous, enzyme-coupled method reported previously (Smith et al. (2009) Anal Biochem 394, 101-109), in which the SRT1 product nicotinamide is first converted into nicotinic acid and ammonia by the action of PNC1, and the ammonia then used by GDH to convert α-ketoglutarate into glutamate. This reaction occurs with oxidation of NADH to NAD^+ which is accompanied by a change in absorbance at 340 nm (Δε340=-6,200 M^-1 cm^-1). Activator titrations were plotted as relative velocity (i.e., the ratio of vx, velocity in the presence of activator X, to vo, velocity in the absence of activator) vs. [X]o, initial concentration of activator, and fit by nonlinear least-squares to the mechanism-independent expression for enzyme activation of […] the maximum relative velocity (i.e., vx/vo at infinite [X]o) and EC50 is the activator concentration at which vx/vo=(RVmax-1)/2. EC50 is a function of the kinetic mechanisms of both catalysis and activation, and the concentrations of substrates.

| Structure (SMILES) | Kd [1] | RVmax (maximum relative velocity) ([2]; substrate TAMRA-peptide, fit to eq (1)) | EC50 ([2]; substrate TAMRA-peptide, fit to eq (1), read-out: EC50 (Kx) for activation of SIRT1-catalyzed deacetylation of TAMRA-peptide) | Effect on the deacetylation of des(biotin,TAMRA)-peptide ([2]; substrate des(biotin,TAMRA)-peptide) | RVmax for activation of the deacetylation of desTAMRA-peptide ([2]; substrate desTAMRA-peptide, fit to eq (1)) | RVmax for activation of the deacetylation of desTAMRA-peptide ([2]; substrate desTAMRA-peptide, fit to eq (1), listed as 22) | EC50 ([2]; substrate desTAMRA-peptide, fit to eq (1), read-out: EC50 for activation of the deacetylation of desTAMRA-peptide) | Ki,app for inhibition of the deacetylation of p53-20 mer ([2]; substrate p53-20 mer, RV=1/(1+([X]o/Ki,app))) | Ki ([2]; substrate p53-20 mer, RV=1/(1+([X]o/Ki,app)), read-out: Ki,app for inhibition of the deacetylation of p53-20 mer) |
| --- | --- | --- | --- | --- | --- | --- | --- | --- | --- |
| CN(C)Cc1cnc2sc(-c3ccccc3NC(=O)c3cnc4ccccc4n3)nc2c1 [Compound 2, N-(2-(6-((dimethylamino)methyl)thiazolo[5,4-b]pyridin-2-yl)phenyl)quinoxaline-2-carboxamide] | 0.27 µM |  |  |  |  |  |  |  |  |
| CCCCc1nc(NC2CCNCC2)cc(C(=O)Nc2ccccc2-c2nc3cc(COC4CCNCC4)cnc3s2)n1 [Compound 10, 2-butyl-6-(piperidin-4-ylamino)-N-(2-(6-((piperidin-4-yloxy)methyl)thiazolo[5,4-b]pyridin-2-yl)phenyl)pyrimidine-4-carboxamide] |  | 6.8±0.3 | 3900 ± 500 nM | none activate | ~2.3 | 2.6 ± 0.1 | ~2000 nM and 1700 nM | inhibit | 9000 nM |
| CN(C)CCCNc1cc(-c2nc3c(NC(=O)c4ccc(CN5CCNCC5)cc4)cccc3[nH]2)ccn1 [Compound 14, N-(2-(2-(3-(dimethylamino)propylamino)pyridin-4-yl)-1H-benzo[d]imidazol-4-yl)-4-(piperazin-1-ylmethyl)benzamide trihydrochloride] | 0.27 µM |  |  |  |  |  |  |  |  |
